Assay results taken from ChEMBL document CHEMBL1201862, “PubChem BioAssay data set” (2004).
Active and inactive are the calls of the source.

Legend:
[1] = biological target: 1-phosphatidylinositol 4,5-bisphosphate phosphodiesterase beta-3 (Homo sapiens, UniProt Q01970); experiment: Fluorescence-based biochemical high throughput dose response assay to identify inhibitors of phospholipase C isozymes (PLC-B3).
[2] = biological target: Luciferin 4-monooxygenase (Photinus pyralis, UniProt P08659); experiment: firefly luciferase enzyme inhibitors, dose response, biochemical, luminescence (AID 1891)
Chain of Luciferin 4-monooxygenase (P08659 whole entry): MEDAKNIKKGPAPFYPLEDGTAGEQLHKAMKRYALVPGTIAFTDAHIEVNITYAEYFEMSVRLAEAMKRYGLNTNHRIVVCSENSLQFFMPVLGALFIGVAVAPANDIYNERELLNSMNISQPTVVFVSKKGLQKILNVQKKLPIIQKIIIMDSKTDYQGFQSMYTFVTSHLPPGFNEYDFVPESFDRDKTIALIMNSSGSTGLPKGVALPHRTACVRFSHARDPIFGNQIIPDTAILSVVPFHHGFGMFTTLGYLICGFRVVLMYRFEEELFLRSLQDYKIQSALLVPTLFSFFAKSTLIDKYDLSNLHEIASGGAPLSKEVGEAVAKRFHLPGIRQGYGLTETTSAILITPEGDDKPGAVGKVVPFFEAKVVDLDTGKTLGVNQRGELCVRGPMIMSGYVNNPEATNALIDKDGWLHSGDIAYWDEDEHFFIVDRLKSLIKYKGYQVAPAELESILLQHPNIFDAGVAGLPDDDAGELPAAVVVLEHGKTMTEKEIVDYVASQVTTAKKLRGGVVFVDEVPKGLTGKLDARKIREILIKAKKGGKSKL

[3] = Luminescence Cell-Based Dose Confirmation HTS to Identify Inhibitors of Platelet Dense Granule Release. [Related pubchem assays: 1663 (Primary HTS), 1678 (Summary of Project)]; assay type: functional
[4] = biological target: 1-phosphatidylinositol 4,5-bisphosphate phosphodiesterase gamma-1 (Homo sapiens, UniProt P19174); experiment: Counterscreen for inhibitors of phospholipase C isozymes (PLC-B3): Fluorescence-based biochemical high throughput dose response assay to identify inhibitors of phospholipase C isozymes (PLC-gamma1).
Chain of 1-phosphatidylinositol 4,5-bisphosphate phosphodiesterase gamma-1 (P19174 whole entry, the tested form may be a part): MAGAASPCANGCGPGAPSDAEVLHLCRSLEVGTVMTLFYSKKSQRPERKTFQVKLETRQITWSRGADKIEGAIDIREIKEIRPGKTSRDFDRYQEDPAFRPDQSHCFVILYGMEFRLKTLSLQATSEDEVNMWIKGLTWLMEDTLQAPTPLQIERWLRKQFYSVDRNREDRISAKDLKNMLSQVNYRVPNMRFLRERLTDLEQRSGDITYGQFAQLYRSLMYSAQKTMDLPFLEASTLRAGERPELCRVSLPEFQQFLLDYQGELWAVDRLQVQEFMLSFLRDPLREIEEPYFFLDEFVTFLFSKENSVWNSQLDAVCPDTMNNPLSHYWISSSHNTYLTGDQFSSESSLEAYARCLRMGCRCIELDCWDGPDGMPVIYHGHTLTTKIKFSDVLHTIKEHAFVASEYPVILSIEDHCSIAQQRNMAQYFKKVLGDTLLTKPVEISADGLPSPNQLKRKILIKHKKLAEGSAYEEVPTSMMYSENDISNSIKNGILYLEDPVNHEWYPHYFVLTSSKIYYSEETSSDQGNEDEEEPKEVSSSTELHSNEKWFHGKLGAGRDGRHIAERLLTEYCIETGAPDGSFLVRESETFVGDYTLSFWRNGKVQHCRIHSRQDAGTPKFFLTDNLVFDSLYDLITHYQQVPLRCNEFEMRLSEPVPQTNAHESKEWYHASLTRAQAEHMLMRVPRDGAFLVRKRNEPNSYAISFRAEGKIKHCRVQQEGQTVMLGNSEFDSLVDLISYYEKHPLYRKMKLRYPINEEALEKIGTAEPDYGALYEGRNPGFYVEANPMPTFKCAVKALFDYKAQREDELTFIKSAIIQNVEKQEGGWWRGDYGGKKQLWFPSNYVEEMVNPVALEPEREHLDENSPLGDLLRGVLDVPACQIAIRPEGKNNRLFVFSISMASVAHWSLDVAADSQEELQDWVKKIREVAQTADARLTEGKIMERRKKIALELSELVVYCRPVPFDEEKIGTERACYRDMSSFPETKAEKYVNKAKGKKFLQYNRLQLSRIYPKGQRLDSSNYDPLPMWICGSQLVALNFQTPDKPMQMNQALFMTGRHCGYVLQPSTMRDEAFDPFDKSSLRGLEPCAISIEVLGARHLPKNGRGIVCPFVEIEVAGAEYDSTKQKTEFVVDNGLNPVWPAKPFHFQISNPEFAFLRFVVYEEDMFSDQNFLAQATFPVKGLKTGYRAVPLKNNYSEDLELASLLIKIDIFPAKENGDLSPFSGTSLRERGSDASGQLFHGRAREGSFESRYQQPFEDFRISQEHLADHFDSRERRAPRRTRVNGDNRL

[5] = biological target: T1, Oxysterols receptor LXR-beta (Homo sapiens, UniProt P55055); assay type: functional, cell-based;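 also: agonist activity at LXR measured by a cell-based luminescence readout across a dose range, run as a counterscreen for daf-12 agonists; potency for activation of Gal4-LXR reporter so compounds are agonists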
T1 sequence (P55055 whole entry): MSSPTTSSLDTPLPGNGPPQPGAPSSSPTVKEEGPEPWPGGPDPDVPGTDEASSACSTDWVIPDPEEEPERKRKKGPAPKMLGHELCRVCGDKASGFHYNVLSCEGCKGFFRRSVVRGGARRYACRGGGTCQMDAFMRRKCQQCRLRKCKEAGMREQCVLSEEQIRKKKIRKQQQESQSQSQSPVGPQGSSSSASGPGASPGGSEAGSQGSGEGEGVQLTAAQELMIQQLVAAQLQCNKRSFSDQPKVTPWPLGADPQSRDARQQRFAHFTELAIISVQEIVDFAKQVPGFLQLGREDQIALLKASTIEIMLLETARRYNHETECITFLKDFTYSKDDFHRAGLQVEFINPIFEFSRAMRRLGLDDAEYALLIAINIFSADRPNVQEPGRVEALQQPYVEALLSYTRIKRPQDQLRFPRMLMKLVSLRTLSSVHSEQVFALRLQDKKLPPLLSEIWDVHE

[6] = biological target: T2, Sentrin-specific protease 6 (Homo sapiens, UniProt Q9GZR1); assay type: functional;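 also: Luminescence-based dose-response confirmatory assay of SENP6 inhibition, following up an ultra-high-throughput screen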
T2 sequence (Q9GZR1 whole entry): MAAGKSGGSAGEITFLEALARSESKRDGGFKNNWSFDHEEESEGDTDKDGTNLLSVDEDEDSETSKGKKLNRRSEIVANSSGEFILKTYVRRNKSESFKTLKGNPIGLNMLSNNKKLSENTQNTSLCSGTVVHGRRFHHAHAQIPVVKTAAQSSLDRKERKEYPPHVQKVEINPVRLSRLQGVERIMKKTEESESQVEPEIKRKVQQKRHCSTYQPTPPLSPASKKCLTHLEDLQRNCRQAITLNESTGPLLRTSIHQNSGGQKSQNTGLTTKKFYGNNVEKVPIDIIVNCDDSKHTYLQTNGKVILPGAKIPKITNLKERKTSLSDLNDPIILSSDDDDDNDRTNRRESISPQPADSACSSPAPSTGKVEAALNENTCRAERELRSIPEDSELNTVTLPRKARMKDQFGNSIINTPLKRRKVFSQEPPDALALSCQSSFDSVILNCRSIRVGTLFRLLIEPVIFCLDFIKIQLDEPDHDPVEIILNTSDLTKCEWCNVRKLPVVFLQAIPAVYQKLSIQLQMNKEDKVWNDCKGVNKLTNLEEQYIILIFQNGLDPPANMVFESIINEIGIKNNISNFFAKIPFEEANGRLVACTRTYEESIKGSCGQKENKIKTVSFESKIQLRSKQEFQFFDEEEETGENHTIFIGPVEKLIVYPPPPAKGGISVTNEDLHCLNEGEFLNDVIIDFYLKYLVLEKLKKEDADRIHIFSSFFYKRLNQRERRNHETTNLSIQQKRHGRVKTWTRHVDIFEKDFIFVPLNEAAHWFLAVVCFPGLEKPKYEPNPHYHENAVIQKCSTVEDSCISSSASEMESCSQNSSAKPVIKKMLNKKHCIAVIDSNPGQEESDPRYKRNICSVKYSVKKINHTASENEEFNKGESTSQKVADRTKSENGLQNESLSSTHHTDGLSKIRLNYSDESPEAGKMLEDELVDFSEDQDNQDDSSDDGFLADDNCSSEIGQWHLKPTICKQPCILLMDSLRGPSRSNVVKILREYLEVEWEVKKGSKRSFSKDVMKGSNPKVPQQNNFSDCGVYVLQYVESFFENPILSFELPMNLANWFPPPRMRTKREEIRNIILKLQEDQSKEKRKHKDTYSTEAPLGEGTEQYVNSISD

[7] = Luminescence-based cell-based high throughput dose response assay to identify activators of the DAF-12 from the parasite S. stercoralis (ssDAF-12).; assay type: functional
[8] = biological target: T3, Sentrin-specific protease 7 (Homo sapiens, UniProt Q9BQF6); assay type: functional;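 also: Luminescence-based dose-response confirmation of ultra-high-throughput screening hits, measuring inhibition of SENP7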
T3 sequence (Q9BQF6 whole entry): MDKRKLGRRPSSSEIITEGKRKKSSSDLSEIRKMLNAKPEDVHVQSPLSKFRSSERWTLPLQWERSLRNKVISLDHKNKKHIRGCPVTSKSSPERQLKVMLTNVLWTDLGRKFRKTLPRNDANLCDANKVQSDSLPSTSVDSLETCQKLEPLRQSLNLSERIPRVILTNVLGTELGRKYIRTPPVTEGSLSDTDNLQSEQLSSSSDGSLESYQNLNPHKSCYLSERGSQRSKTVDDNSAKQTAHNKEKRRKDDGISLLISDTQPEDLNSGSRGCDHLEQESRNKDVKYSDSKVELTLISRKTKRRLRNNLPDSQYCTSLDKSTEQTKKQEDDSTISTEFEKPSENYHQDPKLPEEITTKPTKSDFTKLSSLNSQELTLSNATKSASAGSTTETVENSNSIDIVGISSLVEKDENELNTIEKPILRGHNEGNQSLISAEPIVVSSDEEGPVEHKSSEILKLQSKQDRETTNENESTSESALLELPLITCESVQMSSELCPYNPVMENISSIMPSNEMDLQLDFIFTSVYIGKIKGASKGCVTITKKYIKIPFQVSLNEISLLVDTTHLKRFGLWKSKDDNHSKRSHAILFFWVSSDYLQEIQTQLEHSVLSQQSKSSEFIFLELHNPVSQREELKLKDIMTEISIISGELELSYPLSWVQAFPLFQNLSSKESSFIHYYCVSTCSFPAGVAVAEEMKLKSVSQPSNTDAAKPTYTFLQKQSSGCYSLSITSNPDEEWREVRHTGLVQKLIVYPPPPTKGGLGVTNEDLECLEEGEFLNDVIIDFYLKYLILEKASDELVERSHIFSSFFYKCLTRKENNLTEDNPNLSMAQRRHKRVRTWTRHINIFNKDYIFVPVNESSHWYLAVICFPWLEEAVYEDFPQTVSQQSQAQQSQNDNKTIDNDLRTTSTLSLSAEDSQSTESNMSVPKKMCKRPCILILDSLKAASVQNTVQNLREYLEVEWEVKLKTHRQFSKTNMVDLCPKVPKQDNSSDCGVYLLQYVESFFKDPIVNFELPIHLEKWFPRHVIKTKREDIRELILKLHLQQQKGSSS

Caspase-3 = biological target: T4, Caspase-3 (Homo sapiens, UniProt P42574); assay type: functional;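 also: Dose-response selectivity test against caspase-3 for candidate inhibitors of sentrin-specific proteases (SENPs)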
T4 sequence (P42574 whole entry): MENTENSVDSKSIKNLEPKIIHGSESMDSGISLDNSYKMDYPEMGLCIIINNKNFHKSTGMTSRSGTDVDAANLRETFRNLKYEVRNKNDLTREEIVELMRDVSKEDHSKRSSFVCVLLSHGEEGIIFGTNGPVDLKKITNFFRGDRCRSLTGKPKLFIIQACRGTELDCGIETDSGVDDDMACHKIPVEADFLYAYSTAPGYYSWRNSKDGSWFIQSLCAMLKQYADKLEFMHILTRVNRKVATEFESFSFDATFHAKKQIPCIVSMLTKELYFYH

[9] = biological target: T1, Oxysterols receptor LXR-beta; experiment: LXR agonists, Gal4 luciferase reporter, dose response, counter-screen for ssDAF-12 agonist project, cell-based, luminescence, HEK293, S. stercoralis campaign (AID 720737); assay type: functional; conditions: read-out: IC50 (the source's name)
[10] = biological target: T5, Sentrin-specific protease 8 (Homo sapiens, UniProt Q96LD8); assay type: functional;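 also: luminescence read-out of SENP8 inhibition, dose-response confirmation following an ultra-high-throughput screen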
T5 sequence (Q96LD8 whole entry): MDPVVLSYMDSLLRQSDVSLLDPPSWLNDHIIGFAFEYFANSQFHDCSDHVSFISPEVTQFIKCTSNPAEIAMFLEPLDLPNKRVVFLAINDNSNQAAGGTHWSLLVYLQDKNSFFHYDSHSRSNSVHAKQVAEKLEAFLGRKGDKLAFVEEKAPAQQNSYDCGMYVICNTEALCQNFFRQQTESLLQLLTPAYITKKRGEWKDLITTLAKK

Kallikrein-7 = Kallikrein-7 (Homo sapiens, UniProt P49862); experiment: Fluorescence Intensity-based biochemical primary high throughput dose response assay to identify activators of kallikrein-7 (K7) zymogen.
Chain of Kallikrein-7 (P49862 whole entry): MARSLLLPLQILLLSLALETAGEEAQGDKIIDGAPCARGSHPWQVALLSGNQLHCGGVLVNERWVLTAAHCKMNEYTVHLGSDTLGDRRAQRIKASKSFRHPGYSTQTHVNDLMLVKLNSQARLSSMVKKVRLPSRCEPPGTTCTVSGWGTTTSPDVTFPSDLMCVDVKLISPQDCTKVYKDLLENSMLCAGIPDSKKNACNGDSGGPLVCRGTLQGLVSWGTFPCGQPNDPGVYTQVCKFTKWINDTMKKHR

Vero = Vero cell cytotoxicity, cytotoxicity control for flavivirus capping enzyme inhibitors (AID 588742); assay type: functional; conditions: Chlorocebus sabaeus
[11] = Artemis endonuclease inhibitor potency, dose response, biochemical, fluorescence intensity (AID 720701); assay type: functional;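 also: Artemis endonuclease enzyme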
H4 = experiment: Luminescence Cell-Based Dose Response HTS to Identify Activators of 5'UTR Stem-Loop Driven Prion Protein mRNA Translation in H4 Neuroglioblastoma Cells. [Related pubchem assays: 1829 (Project Summary), 1814 (Primary HTS)]; assay type: functional; conditions: Homo sapiens
[12] = Luminescence Cell-Based Dose Confirmation HTS to Identify Activators of 5'UTR Stem-Loop Driven Alpha-Synuclein mRNA Translation in H4 Neuroglioblastoma Cells. [Related pubchem assays: 1829 (Project Summary), 1814 (Primary HTS)]; assay type: functional
[13] = Luminescence Cell-Based Dose Response HTS to Identify Activators of Luciferase Translation or Activity in H4 […] Cells. [Related pubchem assays: 1829 (Project Summary), 1814 (Primary HTS)]; assay type: functional
[14] = growth inhibition of replicating M. tuberculosis, dose response, counter-screen, dry powder, IC90 (AID 651617); assay type: functional; conditions: Mycobacterium tuberculosis
[15] = inhibitors of non-replicating M. tuberculosis, dose response, luciferase, dry powder (AID 651620); assay type: functional; conditions: Mycobacterium tuberculosis
[16] = inhibitors of non-replicating M. tuberculosis, dose response, luciferase, dry powder (AID 651619); assay type: functional; conditions: Mycobacterium tuberculosis
[17] = HeLa cell cytotoxicity, dose response, cytotoxicity control, 24 h, plate reader, powder samples, set 3 (AID 651864); assay type: functional, cell-based
[18] = A375 melanoma cell viability loss, dose response, counter-screen for MITF modulator project, CellTiter-Glo luminescence, dry powder, set 9 (AID 651591); assay type: functional, cell-based; conditions: A-375
[19] = MITF Orthogonal Assay: SK-MEL-5 CTG Assay Measured in Cell-Based System Using Plate Reader - 2084-02_Inhibitor_Dose_DryPowder_Activity_Set7.; assay type: functional
[20] = MITF: Counter assay: A375 proliferation Measured in Cell-Based System Using Plate Reader - 2084-03_Inhibitor_Dose_DryPowder_Activity_Set8.; assay type: functional; conditions: A-375
[21] = SK-MEL-5 parental cell viability reduction, dose response, orthogonal assay for MITF inhibitor project, CellTiter-Glo luminescence, dry powder, set 8 (AID 651586); assay type: functional, cell-based
[22] = MITF Orthogonal Assay: MALME3 CTG Assay Measured in Cell-Based System Using Plate Reader - 2084-04_Inhibitor_Dose_DryPowder_Activity_Set6.; assay type: functional; conditions: MALME-3
[23] = TRPM1 promoter luciferase reporter signal decrease, dose response, MITF inhibitor project, cell-based, SK-MEL-5, dry powder, set 9 (AID 651588); assay type: functional
[24] = MALME3 melanoma cell viability reduction, dose response, orthogonal assay for MITF inhibitor project, CellTiter-Glo luminescence, dry powder, set 5 (AID 651584); assay type: functional, cell-based; conditions: MALME-3
[25] = TRPM1 promoter luciferase reporter signal decrease, dose response, MITF inhibitor project, cell-based, SK-MEL-5, dry powder, set 8 (AID 624430); assay type: functional
[26] = cytotoxicity in primary human melanocytes, dose response, cytotoxicity control, cell-based, plate reader, dry powder (AID 651920); assay type: functional
[27] = HIV Env cell-cell fusion inhibitors, dose response, HIV entry, plate reader, dry powder (AID 687023); assay type: functional, cell-based
[28] = CEM21 cell cytotoxicity, dose response, cytotoxicity control, plate reader, dry powder (AID 687026); assay type: functional, cell-based

Chain of 1-phosphatidylinositol 4,5-bisphosphate phosphodiesterase beta-3 (Q01970 whole entry): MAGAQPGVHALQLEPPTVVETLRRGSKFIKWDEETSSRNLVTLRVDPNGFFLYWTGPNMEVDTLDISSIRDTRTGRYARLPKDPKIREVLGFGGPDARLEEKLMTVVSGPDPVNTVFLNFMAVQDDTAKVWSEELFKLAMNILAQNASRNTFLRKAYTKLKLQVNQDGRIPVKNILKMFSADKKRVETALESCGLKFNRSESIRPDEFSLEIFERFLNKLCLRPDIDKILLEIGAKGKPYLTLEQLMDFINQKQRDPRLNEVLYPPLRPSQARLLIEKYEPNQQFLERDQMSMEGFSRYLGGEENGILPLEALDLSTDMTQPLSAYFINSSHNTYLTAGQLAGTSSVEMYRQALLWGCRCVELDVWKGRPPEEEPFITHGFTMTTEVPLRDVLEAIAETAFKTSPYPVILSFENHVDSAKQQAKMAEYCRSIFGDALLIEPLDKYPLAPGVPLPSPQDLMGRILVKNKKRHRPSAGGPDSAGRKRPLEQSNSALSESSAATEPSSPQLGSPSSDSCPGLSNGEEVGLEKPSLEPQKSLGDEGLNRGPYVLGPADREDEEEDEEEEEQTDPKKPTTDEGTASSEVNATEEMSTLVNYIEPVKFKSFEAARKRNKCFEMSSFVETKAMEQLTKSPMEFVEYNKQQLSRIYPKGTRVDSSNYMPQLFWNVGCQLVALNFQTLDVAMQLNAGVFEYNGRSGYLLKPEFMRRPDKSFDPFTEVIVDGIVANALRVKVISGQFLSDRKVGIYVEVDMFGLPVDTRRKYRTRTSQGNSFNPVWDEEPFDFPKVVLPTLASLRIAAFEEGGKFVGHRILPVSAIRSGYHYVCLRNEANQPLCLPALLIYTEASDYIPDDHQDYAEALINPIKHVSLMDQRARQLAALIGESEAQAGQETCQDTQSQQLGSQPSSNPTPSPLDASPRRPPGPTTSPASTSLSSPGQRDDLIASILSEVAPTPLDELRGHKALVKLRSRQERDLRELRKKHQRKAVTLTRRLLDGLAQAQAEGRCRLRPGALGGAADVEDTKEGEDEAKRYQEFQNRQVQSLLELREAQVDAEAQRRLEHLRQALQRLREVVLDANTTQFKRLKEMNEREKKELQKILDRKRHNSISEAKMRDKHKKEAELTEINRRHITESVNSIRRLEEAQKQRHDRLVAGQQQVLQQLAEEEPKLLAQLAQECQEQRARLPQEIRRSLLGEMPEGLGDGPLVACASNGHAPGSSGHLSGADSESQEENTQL

## Nc1ncnc2c1ncn2[C@@H]1O[C@H](COP(=O)(O)O)[C@@H](O)[C@H]1O
[1]
  IC50: > 122 µM (inactive)
[2]
  EC50: 1.48 µM (active)
[3]
  EC50: 1.13 µM (active)
[4]
  IC50: 13.2 µM (inactive)

## Cc1csc(NC(=O)c2ccc3ccccc3n2)n1
[5]
  EC50: > 67.6 µM (inactive)
[6]
  IC50: 11 µM (active)
[7]
  IC50: > 67.6 µM (inactive)
[8]
  IC50: 5.25 µM (active)
Caspase-3
  IC50: 6.96 µM (active)
[9]
  EC50: > 67.6 µM (inactive)
[10]
  IC50: 16.2 µM (active)

## CC1(C)CC(=O)C2=C(C1)c1c(ccc3ccccc13)NC2c1ccc(OCC(=O)O)cc1 (configuration not stated)
Kallikrein-7
  EC50: > 69.5 µM (inactive)

## O=C(Nc1ccc2oc(-c3cccc4ccccc34)nc2c1)c1nc[nH]n1
Vero
  CC50: > 40 µM (active)
[11]
  IC50: 7.47 µM (active)
H4
  EC50: 5.42 µM (active)
[12]
  EC50: 0.627 µM (active)
[13]
  EC50: 15.8 µM (active)

## c1ccc(-c2nnc(SCc3ccncc3)o2)cc1
[14]
  IC90: 250 µM (active)
[15]
  IC90: 31 µM (active)
[16]
  IC90: 31 µM (active)

## CCc1ccccc1NCc1ccc(N2CCCC2)cc1
[17]
  AC50: 149 µM (active)

## O=C1C=C(Nc2ccc([N+](=O)[O-])c(C(F)(F)F)c2)C(=O)c2ccccc21
[18]
  AC50: > 70 µM (inactive)
[19]
  AC50: 1.06 µM (active)
[20]
  AC50: > 70 µM (inactive)
[21]
  AC50: 36.1 µM (active)
[22]
  AC50: 27.7 µM (active)
[23]
  AC50: 15.3 µM (active)
[24]
  AC50: 27.7 µM (active)
[25]
  AC50: 5.19 µM (active)
[26]
  AC50: 8.56 µM (active)

## Cc1noc(C)c1S(=O)(=O)Nc1cccc2c1O[C@@H](CN(C)Cc1ccc(C(F)(F)F)cc1)[C@@H](C)CN([C@H](C)CO)C2=O
[27]
  AC50: 18.6 µM (active)
[28]
  AC50: > 70 µM (inactive)
